According to PMC10250256, “A radiohybrid theranostics ligand labeled with fluorine-18 and lutetium-177 for fibroblast activation protein-targeted imaging and radionuclide therapy” (European Journal of Nuclear Medicine and Molecular Imaging, 2023):

Experiment: in vivo stability in ICR mice, blood samples (radio-HPLC)
Protocol: [^18F]21 or [^177Lu]21 (50 μCi, 10 μL) was added to PBS (90 μL) or murine serum (90 μL) and the mixture was incubated at 37 °C for a certain time ([^18F]21: 2 h, [^177Lu]21: 8 d). The PBS mixture was injected directly into the radio-HPLC for analysis. The murine serum was precipitated with 0.1 mL of acetonitrile and centrifuged (10,000 rpm, 5 min). The supernatant was measured and analyzed by the radio-HPLC to determine the stability. For in vivo stability study, the radio tracers were injected into the tail vein of ICR mice and samples of blood were collected after a certain time post injection (pi) ([^18F]21: 4 h, [^177Lu]21: 9 h). The plasma proteins were precipitated using an equal volume of acetonitrile and centrifuged (10,000 rpm, 5 min). The RCP of radio tracer in supernatants were analyzed and quantified by radio-HPLC. The radio-HPLC method was as follows: A: 0.1% TFA in H2O, B: ACN, 0–10 min, 0–100% B. The flow rate was 1 mL/min, and the C18 column (4.6 × 150 mm, 5 μm, ZORBAX, Agilent) was used. When using HPLC to assess the stability of [^177Lu]21, the effluent was collected every 30 s due to its less radioactivity, and samples were measured by an automatic γ-counter (2480 Wizard2, Perkin Elmer). The counted samples were plotted as intensity (cpm) against fraction.

Q: Which results are given for `CC(C)(C)[Si](F)(c1ccc(C(=O)NCC(NC(=O)CCC(C(=O)O)N2CCN(CC(=O)[O-])CCN(CC(=O)[O-])CCN(CC(=O)[O-])CC2)C(=O)NCC2CCC(C(=O)NCCCOc3ccc4nccc(C(=O)NCC(=O)N5CC(F)(F)CC5C#N)c4c3)CC2)cc1)C(C)(C)C.[177Lu+3]` (centres unmarked) [[^177Lu]21]?
A: metabolization in blood samples (radio-HPLC) (ICR mice, within 9 h pi): little evidence of any metabolization; in vivo stability (as summarised in discussion): > 90%
